Biological target: T1, human GPR119 (Homo sapiens, UniProt Q8TDV5)
T1 construct: expressed in transfected cells
T1 sequence (Q8TDV5 1-335): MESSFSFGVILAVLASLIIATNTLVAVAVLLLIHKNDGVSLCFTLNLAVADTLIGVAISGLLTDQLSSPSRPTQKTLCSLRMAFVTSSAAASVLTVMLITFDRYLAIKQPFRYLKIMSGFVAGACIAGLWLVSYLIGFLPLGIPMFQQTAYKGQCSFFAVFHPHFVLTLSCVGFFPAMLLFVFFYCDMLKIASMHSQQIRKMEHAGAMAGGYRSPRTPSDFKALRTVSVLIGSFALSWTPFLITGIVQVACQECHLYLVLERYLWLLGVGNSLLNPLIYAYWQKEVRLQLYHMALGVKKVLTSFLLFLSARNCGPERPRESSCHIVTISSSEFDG
Experiment: Functional cellular assay measuring GPR119-mediated cAMP release (HTRF) in HEK-293 cells stably expressing recombinant human GPR119
Type: cell-based
Settings: cAMP response, cell line expressing human GPR119, 30 minutes at room temperature
Method in brief: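 HEK-293 cells stably expressing recombinant human GPR119, suspended at 400000 cells/mL in HBSS/20 mM HEPES/0.1% BSA/2 mM IBMX, exposed to compound for 30 minutes at room temperature. cAMP detected by HTRF (665/620 nm ratio) after 1 h with reagents in lysis buffer. EC50 taken as concentration giving 50% of maximal activation.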

EC50	SMILES
207 nM	NC(=O)CN1Cc2ccc(N3CC[C@@H](Oc4ccc(C(=O)C5CC5)nc4)C3=O)cc2C1=O [Example 2-52, 2-[6-[(3R)-3-[[6-(cyclopropanecarbonyl)-3-pyridyl]oxy]-2-oxo-pyrrolidin-1-yl]-1-oxo-isoindolin-2-yl]acetamide]
130 nM	NC(=O)CN1Cc2ccc(N3CC[C@@H](Oc4ccc(C(=O)C5CC5)cc4)C3=O)cc2C1=O [Example 2-53, 2-[6-[(3R)-3-[4-(cyclopropanecarbonyl)phenoxy]-2-oxo-pyrrolidin-1-yl]-1-oxo-isoindolin-2-yl]acetamide]
38 nM	CCCCC(=O)c1ccc(O[C@@H]2CCN(c3ccc4c(c3)C(=O)N(CC(N)=O)C4)C2=O)cc1 [Example 2-54, 2-[1-oxo-6-[(3R)-2-oxo-3-(4-pentanoylphenoxy)pyrrolidin-1-yl]isoindolin-2-yl]acetamide]
207 nM	CC1(C(=O)c2ccc(O[C@@H]3CCN(c4ccc5c(c4)C(=O)N(CC(N)=O)C5)C3=O)cc2)CC1 [Example 2-55, 2-[6-[(3R)-3-[4-(1-methylcyclopropanecarbonyl)phenoxy]-2-oxo-pyrrolidin-1-yl]-1-oxo-isoindolin-2-yl]acetamide]
34 nM	NC(=O)CN1Cc2ccc(N3CC[C@@H](Oc4ccc(C(=O)CCC5CC5)nc4)C3=O)cc2C1=O [Example 2-56, 2-[6-[(3R)-3-[[6-(3-cyclopropylpropanoyl)-3-pyridyl]oxy]-2-oxo-pyrrolidin-1-yl]-1-oxo-isoindolin-2-yl]acetamide]
50 nM	CN(C)C(=O)CN1Cc2ccc(N3CC[C@@H](Oc4ccc(C(=O)CCC5CC5)nc4)C3=O)cc2C1=O [Example 2-57, 2-[6-[(3R)-3-[[6-(3-cyclopropylpropanoyl)-3-pyridyl]oxy]-2-oxo-pyrrolidin-1-yl]-1-oxo-isoindolin-2-yl]-N,N-dimethyl-acetamide]
251 nM	CN(C)C(=O)CN1Cc2ccc(N3CC[C@@H](Oc4ccc(C(=O)C5CC5)nc4)C3=O)cc2C1=O [Example 2-58, 2-[6-[(3R)-3-[[6-(cyclopropanecarbonyl)-3-pyridyl]oxy]-2-oxo-pyrrolidin-1-yl]-1-oxo-isoindolin-2-yl]-N,N-dimethyl-acetamide]
330 nM	CN(C)C(=O)CN1Cc2ccc(N3CC[C@@H](Oc4ccc(C(=O)C5(C)CC5)nc4)C3=O)cc2C1=O [Example 2-59, N,N-dimethyl-2-[6-[(3R)-3-[[6-(1-methylcyclopropanecarbonyl)-3-pyridyl]oxy]-2-oxo-pyrrolidin-1-yl]-1-oxo-isoindolin-2-yl]acetamide]
97 nM	Cc1cnc(-c2ccc(O[C@@H]3CCN(c4ccc5c(c4)C(=O)N(CC(=O)N(C)C)C5)C3=O)cn2)s1 [Example 2-60, N,N-dimethyl-2-[6-[(3R)-3-[[6-(5-methylthiazol-2-yl)-3-pyridyl]oxy]-2-oxo-pyrrolidin-1-yl]-1-oxo-isoindolin-2-yl]acetamide]

Continued, molecule first:

SMILES	EC50
CN(C)C(=O)CN1Cc2ccc(N3CC[C@@H](Oc4ccc(-c5cnccn5)cc4)C3=O)cc2C1=O [Example 2-38, N,N-dimethyl-2-[1-oxo-6-[(3R)-2-oxo-3-(4-pyrazin-2-ylphenoxy)pyrrolidin-1-yl]isoindolin-2-yl]acetamide]	808 nM
CCn1nnnc1-c1ccc(O[C@@H]2CCN(c3ccc4c(c3)C(=O)N(CC(=O)N(C)C)C4)C2=O)cc1 [Example 2-39, 2-[6-[(3R)-3-[4-(1-ethyltetrazol-5-yl)phenoxy]-2-oxo-pyrrolidin-1-yl]-1-oxo-isoindolin-2-yl]-N,N-dimethyl-acetamide]	27000 nM
CN(C)C(=O)CN1Cc2ccc(N3CC[C@@H](Oc4ccc(-c5csnn5)cc4)C3=O)cc2C1=O [Example 2-40, N,N-dimethyl-2-[1-oxo-6-[(3R)-2-oxo-3-[4-(thiadiazol-4-yl)phenoxy]pyrrolidin-1-yl]isoindolin-2-yl]acetamide]	337 nM
CN(C)C(=O)CN1Cc2ccc(N3CC[C@@H](Oc4ccc(OC(F)(F)F)c(Cl)c4)C3=O)cc2C1=O [Example 2-41, 2-[6-[(3R)-3-[3-chloro-4-(trifluoromethoxy)phenoxy]-2-oxo-pyrrolidin-1-yl]-1-oxo-isoindolin-2-yl]-N,N-dimethyl-acetamide]	470 nM
CN(C)C(=O)CN1Cc2ccc(N3CC[C@@H](Oc4ccc(-c5nccs5)cc4)C3=O)cc2C1=O [Example 2-42, N,N-dimethyl-2-[1-oxo-6-[(3R)-2-oxo-3-(4-thiazol-2-ylphenoxy)pyrrolidin-1-yl]isoindolin-2-yl]acetamide]	117 nM
Cc1noc(COc2ccc(O[C@@H]3CCN(c4ccc5c(c4)C(=O)N(CC(=O)N(C)C)C5)C3=O)cc2)n1 [Example 2-43, N,N-dimethyl-2-[6-[(3R)-3-[4-[(3-methyl-1,2,4-oxadiazol-5-yl)methoxy]phenoxy]-2-oxo-pyrrolidin-1-yl]-1-oxo-isoindolin-2-yl]acetamide]	1500 nM
CN(C)C(=O)CN1Cc2ccc(N3CC[C@@H](Oc4ccc(-n5cnnn5)cc4)C3=O)cc2C1=O [Example 2-44, N,N-dimethyl-2-[1-oxo-6-[(3R)-2-oxo-3-[4-(tetrazol-1-yl)phenoxy]pyrrolidin-1-yl]isoindolin-2-yl]acetamide]	14700 nM
CCOC(=O)CCc1cc(O[C@@H]2CCN(c3ccc4c(c3)C(=O)N(CC(=O)N(C)C)C4)C2=O)ccc1Cl [Example 2-45, ethyl 3-[2-chloro-5-[(3R)-1-[2-[2-(dimethylamino)-2-oxo-ethyl]-3-oxo-isoindolin-5-yl]-2-oxo-pyrrolidin-3-yl]oxy-phenyl]propanoate]	1510 nM
CN(C)C(=O)CN1Cc2ccc(N3CC[C@@H](Oc4ccc(N5CCCC5)cc4)C3=O)cc2C1=O [Example 2-46, N,N-dimethyl-2-[1-oxo-6-[(3R)-2-oxo-3-(4-pyrrolidin-1-ylphenoxy)pyrrolidin-1-yl]isoindolin-2-yl]acetamide]	6370 nM
CN(C)C(=O)CN1Cc2ccc(N3CC[C@@H](Oc4cnc(OCC5CC5)c(Br)c4)C3=O)cc2C1=O [Example 2-47, 2-[6-[(3R)-3-[[5-bromo-6-(cyclopropylmethoxy)-3-pyridyl]oxy]-2-oxo-pyrrolidin-1-yl]-1-oxo-isoindolin-2-yl]-N,N-dimethyl-acetamide]	90 nM
CN(C)C(=O)CN1Cc2ccc(N3CC[C@@H](Oc4ccc(C(=O)C5CC5)cc4)C3=O)cc2C1=O [Example 2-48, 2-[6-[(3R)-3-[4-(cyclopropanecarbonyl)phenoxy]-2-oxo-pyrrolidin-1-yl]-1-oxo-isoindolin-2-yl]-N,N-dimethyl-acetamide]	202 nM
CC1(C(=O)c2ccc(O[C@@H]3CCN(c4ccc5c(c4)C(=O)N(CC(N)=O)C5)C3=O)cn2)CC1 [Example 2-49, 2-[6-[(3R)-3-[[6-(1-methylcyclopropanecarbonyl)-3-pyridyl]oxy]-2-oxo-pyrrolidin-1-yl]-1-oxo-isoindolin-2-yl]acetamide]	424 nM
NC(=O)CN1Cc2ccc(N3CC[C@@H](Oc4ccc(C(=O)c5ccc(F)cc5)cc4)C3=O)cc2C1=O [Example 2-50, 2-[6-[(3R)-3-[4-(4-fluorobenzoyl)phenoxy]-2-oxo-pyrrolidin-1-yl]-1-oxo-isoindolin-2-yl]acetamide]	102 nM
NC(=O)CN1Cc2ccc(N3CC[C@@H](Oc4ccc(-c5nccs5)cc4)C3=O)cc2C1=O [Example 2-51, 2-[1-oxo-6-[(3R)-2-oxo-3-(4-thiazol-2-ylphenoxy)pyrrolidin-1-yl]isoindolin-2-yl]acetamide]	126 nM

— US9908868B2, “Isoindolinone compounds as GPR119 modulators for the treatment of diabetes, obesity, dyslipidemia and related disorders” (SANOFI, priority 2014, dated 2018)
